Patent publication US20220227761A1, “OXOACRIDINYL ACETIC ACID DERIVATIVES AND METHODS OF USE” (STINGTHERA, INC., priority 2019, published 2022)

Legend:
hSTING-R232 (aa140-379) = hSTING-R232 (aa140-379) (Homo sapiens, UniProt Q86WV6, H232R); test: STING differential scanning fluorimetry (DSF) assay, hSTING WT; conditions: shift in melting temperature apo vs ligand-bound
Method: A STING DSF assay was performed to determine protein thermostability shift in response to small molecule ligand binding. A STING thermnostability shift assay based on differential scanning fluorimetry was used to measure (1) the net shift in melting temperature (ΔTm) between the apo and ligand-bound states of the STING protein and (2) the concentration of the thermal denaturation transition (EC50) as a surrogate measure of binding affinity (Kd). […] Protein in assay buffer was transferred to a 384 well plate and incubated with the hydrophobic fluorescent dye SYBR Orange. A temperature ramp was applied to the plate and the resulting dye fluorescence was plotted as a function of temperature. The first derivative of this function (dF/dT) was then used to extrapolate the melting temperature of the protein at various concentrations of compound and determine the thermal denaturation profile of a protein/compound complex.
5 μM purified Target STING Protein • 3. 8 μM Sypro Orange Dye • 4. Buffer: 100 mM NaCl, 30 mM HEPES, pH 7.5 • 5. Thermal Ramp: 0.5° C./min • 6. <1% DMSO • 7. 11 point, 2 fold dilution, duplicate, 300 μM high concentrations • 8.

[1] = target: human STING protein (140-379), WT (Homo sapiens, UniProt Q86WV6, H232R); test: Radiometric filtration binding competition assay (FBA), hSTING-WT; conditions: WT-hSWAT IC50 (μM), WT_FBA_HIS-SUMO-hSWAT; wild-type human STING; competition with [H3] 2′3′cGAMP
Sequence of human STING protein (140-379), WT (Q86WV6 140-379 H232R): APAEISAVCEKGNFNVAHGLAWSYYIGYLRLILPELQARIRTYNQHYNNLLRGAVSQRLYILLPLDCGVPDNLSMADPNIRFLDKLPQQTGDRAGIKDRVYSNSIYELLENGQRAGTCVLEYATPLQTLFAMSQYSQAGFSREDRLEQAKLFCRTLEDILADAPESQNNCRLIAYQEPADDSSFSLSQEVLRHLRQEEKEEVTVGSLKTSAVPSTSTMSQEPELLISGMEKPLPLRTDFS

[2] = tested on: STING protein; IRF/IFN signaling in THP-1 R232 cells; test: Cell based reporter assay, THP-1 R232 IRF-luc; conditions: Homo sapiens, THP1-dual-KI R232 cells, IRF luciferase reporter; for Emax: maximum measured activity, read-out: THP 1-dual-KI R232_IRF(Luciferase)_Activity Maximum measured (%); for IC50: read-out: THP 1-dual-KI R232_IRF(Luciferase) IC50
Source text: Cell reporter assays were developed to measure the ability of compounds of the application to activate the STING protein and activate both IRF/IFN and the NFkB signaling pathways in the myeloid derived cell line THP-1, which is commercially available from several suppliers. Briefly, THP-1 monocytes were transfected and selected for stable integration of 2 reporter constructs. Clones incorporating stably integrated vectors were further selected by antibiotic resistance to blastocidin and zeocin. The reporter constructs included: (1) firefly luciferase reporter gene under the control of an ISG54 promoter fused to five interferon (IFN)-stimulated response elements to measure IRF transcription factor binding activity and (2) secreted embryonic alkaline phosphatase reporter gene under transcription control of an IFN-beta minimal promoter fused to 5 copies of the NFkB consensus transcriptional response element and 3 copies of the c-Rel binding site.
The resulting THP-1 cell line was further modified to incorporate 3 amino acid point mutations (H71R A230G Q293R). This modification of the native TMEM173 gene in THP-1 cells (HAQ) was designed to produce a cell reporter that expressed the most common allelic variant in the human population (THP-1 R232, available from InvivoGen). Alternatively, the TMEM173 gene was knocked out to provide a congenic control to counter-screen for compound activation that was independent of the STING protein (THP-1 STING KO).
Once cell lines were established, reporter assay protocols were developed and optimized to screen small molecule compounds for agonist activity. Assay optimization for efficacy and Z′ value included titration of the following parameters:
• 1. Cell pre-activation with PMA • 2. Cell seeding density • 3. DMSO tolerance • 4. Media selection • 5. FBS concentration • 6. Incubation time • 7. Co-Assessment of cell viability by CTG assay • 8. Appropriate HPE and ZPE controls • 9. Dose Response Titration
• 1. No pre-activation with PMA • 2. 5×10^4 cells/well in 96 well plate format • 3. <0.5% DMSO • 4. RPMI 1640+2.5 mg/ml glucose • 5. 10% FBS • 6. 14-18 hr incubation • 7. Cell Titer Glo reagent (Promega) following supernatant removal • 8. […] 8 point, 2 fold, duplicate starting at 150 μM

Sequence of hSTING-R232 (aa140-379) (Q86WV6 140-379 H232R): as above

SMILES	WT_DSF_hSWAT Tm Shift (° C.) (hSTING-R232 (aa140-379))	IC50 [1] [µM]	IC50 [2] [µM]	Emax [2] [%]
COc1ccc2c(=O)c3ccc(Cl)c(N(C)C)c3n(CC(=O)O)c2c1 [Compound 2]	D (“D” >7° C.)	20 to 100	< 50	> 50
CN(C)c1c(Cl)ccc2c(=O)c3cc(Cl)c(Br)cc3n(CC(=O)O)c12 [Compound 3]	C (“C” = 2-7° C.)	20 to 100	< 50	> 50
CN(C)c1c(Cl)ccc2c(=O)c3ccc(-n4ccnc4)cc3n(CC(=O)O)c12 [Compound 5]	C (“C” = 2-7° C.)	20 to 100	< 50	> 50
Cc1noc(C)c1-c1ccc2c(=O)c3ccc(Cl)c(N(C)C)c3n(CC(=O)O)c2c1 [Compound 12]	C (“C” = 2-7° C.)	20 to 100		
CN(C)c1c(Cl)ccc2c(=O)c3ccc(-c4cnoc4)cc3n(CC(=O)O)c12 [Compound 13]	D (“D” >7° C.)		< 50	> 50
CC/C=C(\CC)c1ccc2c(=O)c3ccc(Cl)c(OC)c3n(CC(=O)O)c2c1 [Compound 18]	D (“D” >7° C.)	20 to 100	< 50	> 50
CC/C=C(\CC)c1ccc2c(=O)c3ccc(Cl)c(N(C)C)c3n(CC(=O)O)c2c1 [Compound 19]	D (“D” >7° C.)	< 20	< 50	> 50
CN(C)c1c(Cl)ccc2c(=O)c3ccc(Br)cc3n(CC(=O)O)c12 [Compound 20]	D (“D” >7° C.)	< 20	< 50	> 50
CC(C)c1ccc2c(=O)c3c(O)cc(Cl)c(N(C)C)c3n(CC(=O)O)c2c1 [Compound 21]	D (“D” >7° C.)	< 20	< 50	> 50
CCC(C)(C)c1ccc2c(=O)c3ccc(Cl)c(N(C)C)c3n(CC(=O)O)c2c1 [Compound 22]	D (“D” >7° C.)	< 20	50 to 100	> 50
CN(C)c1c(Cl)ccc2c(=O)c3ccc(C4=CCCCC4)cc3n(CC(=O)O)c12 [Compound 23]	D (“D” >7° C.)	< 20	< 50	> 50
Cc1ccc2c(=O)c3ccc(C(F)(F)F)c(N(C)C)c3n(CC(=O)O)c2c1 [Compound 26]	B (“B” = 0-2° C.)	> 300		
COc1c(Cl)ccc2c(=O)c3ccc(C4CCC(N5CCN(C)CC5)CC4)cc3n(CC(=O)O)c12 (stereo not drawn) [Compound 27]	C (“C” = 2-7° C.)	20 to 100		
COc1c(Cl)ccc2c(=O)c3ccc(C4=CCC(N5CCN(C)CC5)CC4)cc3n(CC(=O)O)c12 (stereo not drawn) [Compound 28]	C (“C” = 2-7° C.)	20 to 100		
Cc1cc2c(cc1Cl)c(=O)c1ccc(Cl)c(N(C)C)c1n2CC(=O)O [Compound 33]	C (“C” = 2-7° C.)		< 50	> 50
CCc1cccc2c(=O)c3ccc(C)cc3n(CC(=O)O)c12 [Compound 38]	B (“B” = 0-2° C.)	> 300		
COc1c(Cl)ccc2c(=O)c3ccc(C4=CCNC4)cc3n(CC(=O)O)c12 [Compound 40]	C (“C” = 2-7° C.)	> 300		
COc1c(Cl)ccc2c(=O)c3ccc(C4=CCN(C(=O)OC(C)(C)C)C4)cc3n(CC(=O)O)c12 [Compound 41]	D (“D” >7° C.)	20 to 100		
CN(C)c1c(Cl)ccc2c(=O)c3ccc(C(C)(C)C)cc3n(CC(=O)NS(=O)(=O)C3CC3)c12 [Compound 42]	D (“D” >7° C.)	< 20		
CN(C)c1c(Cl)ccc2c(=O)c3ccc(C(C)(C)C)cc3n(CC(=O)NC#N)c12 [Compound 43]	D (“D” >7° C.)	< 20		
Cc1ccc2c(=O)c3ccc(Cl)c(N(C)C)c3n(CC(=O)NS(=O)(=O)C3CC3)c2c1 [Compound 44]	D (“D” >7° C.)	20 to 100		
Cc1ccc2c(=O)c3ccc(Cl)c(N(C)C)c3n(CC(=O)NC#N)c2c1 [Compound 45]	C (“C” = 2-7° C.)	20 to 100		
CCc1c(Cl)ccc2c(=O)c3ccc(C)cc3n(CC(=O)O)c12 [Compound 48]	D (“D” >7° C.)	20 to 100		
C=Cc1c(Cl)ccc2c(=O)c3ccc(C)cc3n(CC(=O)O)c12 [Compound 49]	D (“D” >7° C.)	20 to 100		
CN(C)c1c(Cl)ccc2c(=O)c3ccc(-c4ccco4)cc3n(CC(=O)O)c12 [Compound 50]	D (“D” >7° C.)	20 to 100		
COc1c(Cl)ccc2c(=O)c3ccc(Br)cc3n(CC(=O)O)c12 [Compound 66]	C (“C” = 2-7° C.)	100 to 300		
CN(C)c1c(Cl)ccc2c(=O)c3ccc(C4(C)CC4)cc3n(CC(=O)O)c12 [Compound 85]		< 20	< 50	> 50
CCc1cc2c(cc1Cl)c(=O)c1ccc(Cl)c(N(C)C)c1n2CC(=O)O [Compound 93]	C (“C” = 2-7° C.)		< 50	> 50

More lines, main results first:

WT_DSF_hSWAT Tm Shift (° C.) (hSTING-R232 (aa140-379))	IC50 [1] [µM]	IC50 [2] [µM]	SMILES	Emax [2] [%]
B (“B” = 0-2° C.)	< 20	> 150	COc1cc2c(=O)c3ccc(Cl)c(N(C)C)c3n(CC(=O)O)c2cc1OC [Compound 1]	5 to 25
D (“D” >7° C.)	< 20	< 50	Cc1cccn1-c1ccc2c(=O)c3ccc(Cl)c(N(C)C)c3n(CC(=O)O)c2c1 [Compound 4]	> 50
D (“D” >7° C.)	< 20	< 50	CN(C)c1c(Cl)ccc2c(=O)c3ccc(-n4cccn4)cc3n(CC(=O)O)c12 [Compound 6]	> 50
D (“D” >7° C.)	< 20	< 50	CN(C)c1c(Cl)ccc2c(=O)c3ccc(-n4cccc4)cc3n(CC(=O)O)c12 [Compound 7]	> 50
D (“D” >7° C.)	< 20	< 50	CN(C)c1c(Cl)ccc2c(=O)c3ccc(-c4ccncc4)cc3n(CC(=O)O)c12 [Compound 8]	> 50
C (“C” = 2-7° C.)	< 20	< 50	CN(C)c1c(Cl)ccc2c(=O)c3ccc(-c4cccnc4)cc3n(CC(=O)O)c12 [Compound 9]	> 50
D (“D” >7° C.)	< 20	< 50	CN(C)c1c(Cl)ccc2c(=O)c3ccc(-c4ccccn4)cc3n(CC(=O)O)c12 [Compound 10]	> 50
D (“D” >7° C.)	< 20	< 50	CN(C)c1c(Cl)ccc2c(=O)c3ccc(-c4ccccc4)cc3n(CC(=O)O)c12 [Compound 11]	> 50
D (“D” >7° C.)	< 20	< 50	CN(C)c1c(Cl)ccc2c(=O)c3ccc(-c4cc[nH]c4)cc3n(CC(=O)O)c12 [Compound 14]	> 50
D (“D” >7° C.)	< 20	< 50	CN(C)c1c(Cl)ccc2c(=O)c3ccc(C4=CCN(C(=O)OC(C)(C)C)CC4)cc3n(CC(=O)O)c12 [Compound 15]	> 50
D (“D” >7° C.)	< 20	< 50	CN(C)c1c(Cl)ccc2c(=O)c3ccc(C4=CCOC4)cc3n(CC(=O)O)c12 [Compound 16]	> 50
D (“D” >7° C.)	< 20	< 50	CN(C)c1c(Cl)ccc2c(=O)c3ccc(-c4ccn(C(=O)OC(C)(C)C)c4)cc3n(CC(=O)O)c12 [Compound 17]	> 50
